Experimental data: patent US10160977B2, “Super-enhancers and methods of use thereof” (Whitehead Institute for Biomedical Research, priority 2012, dated 2018)
Counter-ions that a name gives are not always drawn.

Columns and labels:
[1] = test system: HL60 cells; conditions: read-out: IC50, growth of HL60 cells; cited from earlier work
[2] = test system: pause release; experiment: Inhibition of pause release; type: cell-based
Source text: It has undergone clinical trials in a number of different cancer types including various solid tumors and leukemias. […] Without wishing to be bound by theory, this may help counteract the effects of Myc overexpression, and this may be the basis for the therapeutic effect of flavopiridol on some tumors.

[3] = test system: xenograft models; conditions: in vivo; cited from earlier work
[4] = test system: various tumor cells lines; conditions: cited from earlier work
[5] = molecular target: T1, c-Myc (Homo sapiens, UniProt P01106); conditions: cited from earlier work
T1 sequence (P01106 whole entry): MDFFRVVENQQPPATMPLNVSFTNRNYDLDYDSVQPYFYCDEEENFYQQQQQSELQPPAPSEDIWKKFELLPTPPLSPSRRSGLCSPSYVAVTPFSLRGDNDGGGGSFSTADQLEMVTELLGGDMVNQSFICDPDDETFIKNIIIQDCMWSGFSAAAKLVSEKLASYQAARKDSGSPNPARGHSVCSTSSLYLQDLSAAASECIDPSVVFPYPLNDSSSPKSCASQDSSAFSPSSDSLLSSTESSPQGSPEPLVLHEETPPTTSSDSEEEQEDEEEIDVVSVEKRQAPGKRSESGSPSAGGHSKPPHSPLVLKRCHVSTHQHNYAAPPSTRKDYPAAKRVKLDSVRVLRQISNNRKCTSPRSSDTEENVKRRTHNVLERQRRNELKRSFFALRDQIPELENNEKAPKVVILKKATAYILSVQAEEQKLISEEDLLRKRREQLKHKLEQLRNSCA

[6] = test system: RNA Polymerase II; experiment: ChIP-seq of RNA Polymerase II after JQ1 treatment (transcription elongation); type: cell-based, human; conditions: MM.1S cells
Source text: (FIG. 10B) Genes associated with super-enhancers show a dramatic defect in elongation.

[7] = test system: c-MYC; experiment: Western blot of c-MYC protein levels after JQ1 or DMSO treatment; type: cell-based, human; conditions: MM.1S cells, 6 hours of JQ1 treatment
Source text: (§1) Schematic depicting the experimental procedure.

[8] = test system: MM.1S cells; experiment: JQ1 sensitivity of MM.1S cells by measurement of ATP levels (CellTiterGlo); type: cell-based, human
Source text: as §1

[9] = test system: P-TEFb; experiment: ChIP-Seq of P-TEFb occupancy in MM.1S cells after JQ1 treatment; type: cell-based, human
Source text: FIGS. 9(A)-9(C) illustrate that loss of P-TEFb accompanies BRD4 inhibition. (FIG. 9A) P-TEFb generally occupies enhancers bound by Mediator and BRD4 in MM1.S cells. […] (FIG. 9C) P-TEFb is disproportionally lost at super-enhancers.
BRD4 recruits the active form of the positive transcription elongation factor P-TEFb, which stimulates pause release and transcription elongation (Bisgrove et al., 2007; Hargreaves et al., 2009; Jang et al., 2005; Jiang et al., 1998; Wu and Chiang, 2007; Wu et al., 2003; Yang et al., 2005). […] Furthermore, P-TEFb was disproportionately lost at super-enhancers when compared to normal enhancers (FIG. 9C). We conclude that BET bromodomain inhibition of BRD4 leads to loss of P-TEFb at enhancers and transcription start sites, and that the inhibition has more profound effects at super-enhancers than at average enhancers.

[10] = molecular target: T1, c-Myc; conditions: cited from earlier work; remark: listed apart in the source
[11] = molecular target: c-Myc/Max (Homo sapiens, UniProt P01106); conditions: cited from earlier work
Chain of c-Myc/Max (P01106 whole entry): as above

[12] = molecular target: T1, c-Myc; conditions: at concentrations of 10-40 μM; cited from earlier work
[13] = test system: chicken embryo fibroblasts; conditions: cited from earlier work

CCc1ccc(/C=C2/SC(=S)NC2=O)cc1 [10058-F4]
IC50 [1]: 49 µM

CN1CC[C@H](c2c(O)cc(O)c3c(=O)cc(-c4ccccc4Cl)oc23)[C@H](O)C1 [Flavopiridol, (−)-2-(2-Chlorophenyl)-5,7-dihydroxy-8-[(3S,4R)-3-hydroxy-1-methyl-4-piperidinyl]-4H-1-benzopyran-4-one hydrochloride]
pause release [2]: inhibit pause release
tumor growth in xenograft models [3]: inhibit tumor growth
antitumor activity against various tumor cells lines [4]: antitumor activity

CNC(=O)c1cc2c(cc1C(=O)NC[C@H](NS(=O)(=O)c1c(Cl)sc(Cl)c1Br)C(=O)OC(C)(C)C)CN(C(=O)CCC1CCN(C(=O)OC(C)(C)C)CC1)C2 [IIA6B17]
inhibition of c-Myc-dependent transcription in a reporter gene assay [5]: inhibit

Cc1sc2c(c1C)C(c1ccc(Cl)cc1)=N[C@@H](CC(=O)OC(C)(C)C)c1nnc(C)n1-2 [JQ1]
transcriptional elongation (PolII in the gene body and 3' transcription termination regions) [6]: global defect in transcriptional elongation
MYC protein levels [7]: significantly depleted
MM1.S cell viability, as measured by ATP levels ([8]; 6 hour treatments, various concentrations of JQ1): little effect
antiproliferative effect on MM1.S cells ([8]; later time points): dramatic antiproliferative effect
levels of P-TEFb at sites where there was a reduction in BRD4 [9]: reduce the levels of P-TEFb

CN(C)CCCNc1cc(O)c2c(c1O)C(=O)c1ccccc1C2=O [MYRA-A]
Myc-regulated gene expression [10]: inhibit
apoptosis [10]: induce apoptosis in a Myc-dependent manner

COc1ccc(CNC(=O)c2cc3nc(-c4cccs4)cc(C(F)(F)F)n3n2)cc1 [Mycro1]
specificity for c-Myc-dependent transcription over transcription mediated by AP-1 family proteins [5]: weak-to-moderate specificity
inhibition of c-Myc/Max dimerization [11]: inhibit

O=C(NCc1cccs1)c1cc2nc(-c3cccs3)cc(C(F)(F)F)n2n1 [Mycro2]
specificity for c-Myc-dependent transcription over transcription mediated by AP-1 family proteins [5]: weak-to-moderate specificity
inhibition of c-Myc/Max dimerization [11]: inhibit

CCOC(=O)c1cnn(-c2ccccc2)c1NC(=O)c1cc2nc(-c3cccs3)cc(C(F)(F)F)n2n1 [Mycro3]
potency and selectivity against c-Myc in cellular assays [12]: good potency and selectivity
inhibition of c-Myc/Max dimerization [11]: inhibited
selectivity in vitro of inhibition of c-Myc/Max dimerization and DNA binding ([11]; in vitro): very good selectivity

COc1ccc(CN(C(=O)c2ccccn2)C(C(=O)NC2CCCCC2)c2ccc3cc(OCC(=O)OC(C)(C)C)ccc3c2)cc1 (stereo not shown) [NY2267]
discrimination between transcription mediated by c-Jun and c-Myc [5]: did not discriminate
inhibition of c-Myc-dependent oncogenic transformation of chicken embryo fibroblasts ([13]; at 20 μM): strongly inhibited
selectivity over transformation mediated by v-Src or v-Jun [13]: showed selectivity
